Results reported in the NIST ThermoML archive (doi:10.1021/acs.jced.9b00844).
± gives the expanded uncertainty stated by the source.

Key:
[1] = Crystal; DSC
[2] = Molar enthalpy of transition or fusion; conditions: Crystal; DSC

Q: With `N=C(N)NC(=N)NCCc1ccccc1` [N-(2-phenylethyl)imidodicarbonimidic diamide] as the compound, how does the Triple point temperature [1] read?
A: The Triple point temperature was 446.85 ± 1.2 K.

Q: What about the “Molar enthalpy of transition or fusion” value [2] of the same compound?
A: Its value is 2.78 ± 0.179 kcal/mol.
